One series concerns BDC-2.5 CD4+ T cells. The experiment in a line: BDC-2.5 CD4+ T cell proliferation in LNs and spleen after injection. The format is in vivo, murine. An excerpt:
Increased proliferation is seen with GNPs coupled to antigen both in the draining and distant LN sites and spleen.
A similar in vivo protocol was designed, using fluorescently labelled indicator CD4^+ T cells (BDC-2.5, specific for chromograninA 342-355 found in pancreatic beta cells) and the peptide “BDC-2.5 mimotope” (a peptide of similar configuration to this epitope, that mimics the chromogranin A 342-355 peptide) coupled to GNPs linked to either mannose C2 or glucose C2.
A preliminary in vivo experiment was carried out using the murine BDC-2.5 mimotope peptide and fluorescently-labelled indicator CD4 T cell clones specific for this peptide described above. GNPs were given coupled to peptide (BDC-2.5 mimotope), IL-10, or both, and compared to blank GNPs of injected controls. […] This provides evidence that the cytokine travels with the GNPs to distant sites when complexed with GNPs, and in bioactive form. This is of enhanced efficiency compared to IL-10 alone.

Series [1] relates to OT-II (ovalbumin peptide (323-339) specific) CD4+ T cells. The experiment in a line: Accumulation of fluorescent cells in LN of CCR7−/− mice. The conditions noted are these: CCR7−/− compared to wildtype B6 mice. In kind it is in vivo. Here is the method:
In order to determine whether the injected peptide is carried to draining LNs in fluid phase or carried via migratory skin DCs, homozygous knockout mice for the chemokine receptor CCR7 (which mediates DC migration from skin) were treated in the same protocol as above.

The nature of the next series: Solubility tests. The format is physicochemical. As for the experimental part: Given the low incorporation of 10% C19-A3 peptide into GNPs (3-5%) using the 75% methanol-based preparation method, solubility tests were performed to determine the optimal solution for C19-A3 peptide conjugation to gold nanoparticles. […] Therefore, water-based GNP synthesis methods were developed using low (10%) or intermediate (35%) levels of methanol, and vivaspin centrifugation to remove any unbound peptide. GNPs containing 10% C19-A3 peptide and 10% glucose C2 (NP58) or 10% mannose C2 (NP61) were synthesised using a water-based (10% methanol) method (Table 12). HPLC analysis of peptide released from the C19-A3-GNPs following treatment with KCN solution (100 mM), confirmed 100% and 62% incorporation efficiency of C19-A3 peptide, with 31 and 19 peptides bound per GNP, for NP58 and NP61, respectively. An intermediate 35% methanol preparation method was also tested for synthesis of 10% C19-A3, 10% glucose C2 GNPs (NP63). HPLC analysis again confirmed high incorporation of C19-A3 peptide (67%), with 20 peptides bound per GNP.

The subject of series [2] is OT-II (ovalbumin peptide (323-339) specific) CD4+ T cells. The experiment in a line: OT-II T cell proliferation in draining LN after intradermal injection. Conditions: 3 days later, flow cytometry. In kind it is in vivo, C57BL/6 mice. As for the experimental part:
PBS, ovalbumin peptide (323-339) or ovalbumin peptide (323-339) containing GNPs (NP167, NP168) were injected intradermally in C57BL/6 mice 24 h after i.v. administration of fluorescent cell trace violet (CTV)-labelled OT-II (ovalbumin peptide (323-339) specific) CD4+ T cells. 3 days later, draining LN cells were isolated and studied by flow cytometry. The presence of OT-II cells in the LN was shown by the appearance of cells of that are […] CD45.1^+Vα2^+ and high CTV fluorescence (right hand edge of square). Proliferation of OT-II cells was seen as dilution of the CTV fluorescence, bringing the cells progressively at each cell cycle into the blue box. The percentage of cells with the proliferation square is shown. […] Each plot represents the results from a different mouse.
PBS, ovalbumin peptide (323-339), or ovalbumin peptide (323-339) coupled GNPs (NP167, NP168) were administered intradermally to C57BL-6 mice, at the same time as i.v. administration of fluorescent cell trace violet (CTV) labelled OT-II (Ovalbumin peptide specific) CD4 positive T cells. Draining LN and spleen cells were harvested 3 days after ovalbumin (323-339) peptide administration, and studied by flow cytometry. Where fluorescent cells are seen but the level of fluorescence has been reduced, this implies that they have recognised their target peptide on APCs in that tissue and undergone cell division.
(In general: A flow cytometer gives signals particle by particle.)

The subject of series [3] is Human immature monocyte derived dendritic cells (iDCs). As to the kind of experiment: DC maturation (CD80, HLA-DR expression, FACS). In kind it is cell-based. The conditions noted are these: subsequent stimulation with LPS. Here is the method:
Human immature monocyte derived dendritic cells (iDCs) were incubated with proinsulin C19-A3 coupled GNPs or without GNPs for 4 h. Thereafter, the GNPs were washed off and cells left overnight, either alone or in the presence of 100 ng/ml LPS. Overnight maturation of DCs was measured as increases of CD80 and HLA-DR expression using FACS.
(§1) However, IL-10-GNPs changed the ability of DCs to upregulate HLA-DR and activation molecules CD80 and CD25 upon stimulation with LPS.

For series [4] the test system is unchanged. The experiment in a line: Cytokine release by DCs after LPS (Luminex). The format is cell-based. As for the experimental part:
iDCs were also incubated with proinsulin C19-A3 GNPs coupled to glucose (GNPgluc), with proinsulin C19-A3 GNPs coupled to mannose (GNPman), or without GNPs for 4 hrs. Thereafter, cells were washed and subsequently stimulated with 100 ng/ml LPS and left overnight. Supernatants were collected the next day and cytokine (IL-10, IL-12 and TNF) release by DCs measured using Luminex.
as §1

This is an account of results in patent publication US20180177891A1, “Nanoparticle-Based Antigen Specific Immunotherapy” (Midatech Limited, priority 2015, published 2018).

Where no end group is shown, it is not given here.

With “YVRPLWVRME [BDC-2.5 mimotope peptide, peptide that mimics the chromogranin A 342-355 peptide, reference compound]”, the “accumulation of proliferating indicator cells in draining LN, distant LNs and spleen” value in the series on BDC-2.5 CD4+ T cells (3 days after injection) is “modest accumulation of proliferating indicator cells”.
Regarding “ovalbumin (323-339) GNPs: ovalbumin (323-339) peptide GNPs”, in series [1], the “fluorescent cells accumulated in the LN” value was “reduced numbers of fluorescent cells”.
For “GSLQPLALEGSLQKRGIV [C19-A3 peptide, GSLQPLALEGSLQKRGIV]”, the solubility in water result in the series “Solubility tests” is on record as “highly soluble”.
In the case of “ISQAVHAAHAEINEAGR [ovalbumin peptide, Ovalbumin 323-339 peptide, reference compound]”, the “OT-II cell accumulation and proliferation in draining LN” value in series [2] is listed as “low levels”.

B1: soluble IL-10: Human recombinant IL-10, not bound to nanoparticles (protein, UniProt P22301 19-178, looked up)
Interleukin-10: SPGQGTQSENSCTHFPGNLPNMLRDLRDAFSRVKTFFQMKDQLDNLLLKESLLEDFKGYLGCQALSEMIQFYLEEVMPQAENQDPDIKAHVNSLGENLKTLRLRLRRCHRFLPCENKSKAVEQVKNAFNKLQEKGIYKAMSEFDIFINYIEAYMTMKIRN
Consider B1, for which the “maturation of DCs upon LPS (phenotype)” value in series [3] is given as “immature phenotype”. For the same molecule, in series [4] (LPS-treated DCs), the “pro-inflammatory cytokine production (IL-12 and TNF)” value is recorded as “reduced pro-inflammatory cytokine production”. Moreover, the “release of IL-10 in the culture” value in series [4] (final IL-10 concentration 100 pg/ml) is “significantly higher release of IL-10”. Besides, the “effect of IL-10 on proliferation of indicator T cells” value in the series on BDC-2.5 CD4+ T cells (preliminary in vivo experiment, IL-10 at the same concentration) is “no effect of proliferation”.
